Assay [1] relates to piglets. Briefly: Architectural and geometric properties of bones from piglets given AKG or Ala-Gln orally. The format is in vivo, pig. Conditions: piglets 35 days, 0.4 g/kg b.w. oral, mean ± SEM. As to the method:
(§1) All piglets suckled sow milk before weaning. After weaning at the age of 28 days piglets were fed ad libitum with a standard mixture Premix prestarter (PP) (Food plant-Motycz, Poland) and free access to water was allowed. Piglets were allotted to three experimental trials:
(§2) 2—Second group, receiving 0.4 g/kg/b.w. of L-alanyl-L-glutamine (ala-gln), (2 ml solution/kg b.w.)
(§3) Different parameters are used for defining and measuring the bone quality according to the invention. Used parameters are known to the skilled man in the art and are explained below: • 1) Maximum elastic strength measures the load, in Newtons (N), at […]. • 2) Ultimate strength measures the load, in Newtons (N), at […] of the bone. • 3) Cross-sectional area is the measure of the bone area on the cross section, in mm^2. • 4) Second moment of inertia is the measurement of the efficiency of the cross-sectional geometry to resist bending force, expressed in mm^4. • 5) Mean relative wall thickness is the wall thickness of the bone to its lumen. • 6) Bone mineral density (BMD) expresses the mineral content of the bone expressed in g/cm^2.
(§4) At the age of 35 days, piglets were sacrificed, eviscerated and bones were sampled.
Architectural and geometric properties of bone were estimated based on measurements of horizontal and vertical cross section as well as interior and exterior diameter of the bone.
Mean relative wall thickness (MRWT) expresses the ratio of wall to lumen measures and serves as an indicator in the process of architectural adaptation of bone to physiological stress during the growth of the body. When the lumen increases with unchanged wall thickness the MRWT decreases but bone resistance to strain increases.

Assay [2] relates to piglets. Briefly: Growth (bodyweight) and bone mineralisation during postnatal life of the pig. The format is in vivo. As to the method:
as §1, §2, §4

Assay [3] deals with piglets. Briefly: Three point bending test (Instron 4302) of bones from piglets given AKG or Ala-Gln orally. It is filed as in vivo, pig. To be noted: for Bone ultimate strength (Wf) femur: piglets 35 days of postnatal life, 0.4 g/kg b.w. oral once a day. The procedure:
as §1, §2, §3, §4
Using Instron 4302 apparatus and applying three point bending test as presented in FIG. 1, the following properties of the bones were determined from curves showing the relation between load and deflection:
1) maximum elastic strength, Wy
4) maximum elastic deflection.

Another assay concerns postmenopausal women. To be noted: Gynecol. Endocrinol. 7:201-205 (1993); cited from earlier work.
A further assay concerns turkeys. Briefly: Ulna bone mineral density (DEXA) after fracture and neurectomy in the turkey. The format is in vivo. To be noted: group A, 0.8 g/kg oral. The text has this: Turkeys are kept in common cages, 10 turkeys/cage. The turkeys have free access to water and are fed ad libitum.
The next assay concerns ovariectomized rats. Briefly: Femur bone mineral density in intact, shame operated and ovariectomized osteopenic female rats given AKG in drinking water. The format is in vivo, Wistar rats. To be noted: all three groups (INT, SHO, OVX), 60 days drinking water with AKG, p<0.01 in all groups. The procedure: 60 female Wistar rats at the age of 2 months and with an initial bodyweight of 200 g are used.
The animals are maintained in controlled conditions of 12/12 h dark/light ratio at 22° C.±2 and at 55%±2 humidity with free access to food and water.
The rats are divided into three groups (n=20), where Group 1 is shame operated, Group 2 is ovariectomized and Group 3 is intact, i.e. not operated at all.
On the day of surgery, all rats are anaesthetised with an intramuscular injection of ketamine and xylaline.
20 of the rats are shame-operated (SHO), where the ovaries are exteriorised and replaced intact.
The second group of ovariectomized rats (OVX) are submitted to ovariectomy from a dorsal approach.
Six months after ovariectomy, the animals from group 1 and 2, are divided into two additional sub-groups; one placebo and one experimental group.
After 60 days with placebo and experimental drinking water the rats are anaesthetised in CO2 and femur isolated for further analysis of bone mineral density.

Setting [4] is: ribs 4-9, piglets 35 days, 0.4 g/kg b.w. oral, mean ± SEM.

Residues, ends and D or L forms follow the SMILES beside them.

As for `C[C@H](N)C(=O)N[C@@H](CCC(N)=O)C(=O)O` [Ala-Gln, L-alanyl-L-glutamine] (H-Ala-Gln-OH), in the assay on piglets [1] (femur), the “Cross-sectional area (A) femur” value was 60.1 ± 2.59 * mm^2 and the “Second moment of inertia (Ix) femur” value was 492.8 ± 12.81 ∇ mm^4. Further, in the assay with piglets [1], the “Cross-sectional area (A) humerus” value is listed as 52.2 ± 2.48 * mm^2. Further, in the assay with piglets [1] (ribs 4-9), the “Cross sectional area (A) (ribs 4-9)” value came out at 9.62 ± 0.33 mm^2 and the “Second moment of inertia (ribs 4-9)” value was found to be 10.88 ± 0.55 mm^4. In the assay with piglets [2] (day 14, control group always less than Ala-Gln group), the “Bodyweight difference, day 14” value is recorded as “about 690 g”. Also, the “Bodyweight difference, day 21” value in the assay on piglets [2] (day 21, control group always less than Ala-Gln group) is given as “about 419 g”. In addition, the “Bodyweight difference, day 35” value with piglets [2] (day 35, control group always less than Ala-Gln group) is on record as “about 313 g”. In addition, the “Bodyweight difference, day three” value in the assay with piglets [2] (day three of postnatal life, control group always less than Ala-Gln group) was “about 96 g”. Also, the “Bone ultimate strength (Wf) femur” value with piglets [3] (mean ± SEM) amounted to 1075.0 ± 28.16 N. Besides, in the assay on piglets [3] (setting [4]), the “Bone maximum elastic strength (Wy) (ribs 4-9)” value worked out at 442.9 ± 15.32 N, the “Moment of ultimate strength ribs (4-9)” value is recorded as 625.24 ± 1.5 ∇ N and the “Ultimate strength (Wf) (ribs 4-9)” value was 450.2 ± 22.1 N.

As for L-glutamine calcium monofluorophospate, the “Increase in bone mineral density” value with postmenopausal women was 4.25%.

Take α-keto-glutaric sodium salt [AKG]: in the assay with turkeys (left wing control (intact), p<0.01), the “BMD of the ulna bone, difference compared to the saline treated turkeys” value came to 25%. Besides, in the assay with turkeys (right wing experimental (neurectomized, fracture of the ulnae), p<0.055), the “BMD of the ulna bone, AKG effect compared to the saline treated turkeys” value is “about 11%”. In addition, the “BMD difference between the AKG treated rats and the placebo treated rats” value in the assay on ovariectomized rats is on record as “about 10%”. The “Cross-sectional area (A) femur” value in the assay with piglets [1] (femur) is 64.7 ± 3.82 * mm^2. Moreover, the “Cross-sectional area (A) humerus” value in the assay on piglets [1] is given as 52.7 ± 4.1 * mm^2. Also, the “Yielding stress of the 5th rib” value with piglets [3] (5th rib, 35-days-old piglets, versus control) is reported as “significant increase”. The “Bone ultimate strength (Wf) femur” value in the assay on piglets [3] (mean ± SEM) came to 1123.0 ± 75.09 N.

Values taken from patent publication US9233088B2, “Use of glutamate, glutamate derivatives or metabolites, glutamate analogues or mixtures thereof for the manufacture of a composition for the treatment of osteoporosis” (Protista Biotechnology AB, priority 2001, dated 2016).
